This assay has as its target T1, recombinant human cannabinoid CB2 receptor (Homo sapiens, UniProt P34972).
T1 construct: purchased Receptor Biology RB-HCB2
The assay can be described thus: competition with [3H] CP-55,940 for binding to recombinant cannabinoid CB2 receptor membranes. How it is done:
Potential cannabinoid receptor ligands were screened for the ability to compete with [^3H] CP-55,940 for binding to recombinant cannabinoid receptors. Test compounds were serially diluted in Diluent Buffer (50 mM Tris pH 7.1, 1 mM EDTA, 3 mM MgCl2, 0.1% BSA, 10% DMSO, 0.36% methyl cellulose (Sigma M-6385)) from stocks prepared in 100% DMSO. Aliquots (10 μl) were transferred into 96-well microtiter plates. Membrane preparations of recombinant human cannabinoid CB2 receptor (Receptor Biology #RB-HCB2) or recombinant human cannabinoid CB1 receptor (Receptor Biology #RB-HCB1) were diluted to 0.3 mg/ml in Binding Buffer (50 mM Tris pH 7.2, 1 mM EDTA, 3 mM MgCl2, 0.1% BSA). Aliquots (50 μl) were added to each well of the microtiter plate. The binding reactions were initiated by addition of [^3H] CP-55,940 (New England Nuclear # NET 1051; specific activity=180 Ci/mmol available from New England Nuclear) to each well of the microtiter plate. Each 100 μl reaction mixture contained 0.48 nM [^3H] CP-55,940, 15 ug membrane protein in binding buffer containing 1% DMSO and 0.036% methyl cellulose. Following incubation for 2 hours at room temperature, the reaction mixtures were filtered through 0.5% polyethylenimine-coated GF/C filter plates (UniFilter-96, Packard) with a TomTec Mark 3U Harvester (Hamden, Conn.). The filter plate was washed 5 times with binding buffer, rotated 180°, then re-washed 5 times with binding buffer. Bound radioactivity was quantitated following addition of 30 μl of Packard Microscint 20 scintillant in a Packard TopCount NXT microplate scintillation counter. Non-linear regression analysis of the resulting data was performed using Prism 2.0b (from GraphPad, San Diego, Calif.).
The activities (potencies) for the compounds of the invention are determined by measuring their Ki values.

Where [1] appears, read: 0.48 nM [3H] CP-55,940, 15 ug membrane protein, 2 hours at room temperature, read-out: CB2 Ki.

Like-named read-outs stand apart in the source and are kept apart here.

T1 sequence (P34972 whole entry): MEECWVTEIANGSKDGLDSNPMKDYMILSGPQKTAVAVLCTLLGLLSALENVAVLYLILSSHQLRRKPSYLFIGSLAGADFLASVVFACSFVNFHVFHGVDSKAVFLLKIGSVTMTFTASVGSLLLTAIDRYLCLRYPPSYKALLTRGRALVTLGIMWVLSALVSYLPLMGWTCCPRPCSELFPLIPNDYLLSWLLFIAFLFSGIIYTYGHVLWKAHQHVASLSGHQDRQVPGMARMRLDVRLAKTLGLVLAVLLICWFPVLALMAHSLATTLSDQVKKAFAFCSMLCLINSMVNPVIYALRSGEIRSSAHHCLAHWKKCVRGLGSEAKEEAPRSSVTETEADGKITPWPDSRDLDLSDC

A word on the Ki: it is the equilibrium dissociation constant of an inhibitor or competing ligand from its target. As to `CS(=O)(=O)NC1CCc2cc(S(=O)(=O)c3ccc(C4CC4)cc3S(=O)(=O)c3ccccn3)ccc21` (stereo not drawn) [Compound 9], the Ki is less than 0.02 µM.

As for `O=C(NC1CCc2cc(S(=O)(=O)c3ccc(C4CC4)cc3S(=O)(=O)c3ccccn3)ccc21)C(F)(F)F` (stereo not drawn) [Compound 19], the Ki under setting [1] is less than 0.02 µM. Turning to `O=C(NC1CCc2cc(Cc3ccc(OC(F)(F)F)cc3S(=O)(=O)c3ccccc3F)ccc21)C(F)(F)F` (stereo not drawn) [Compound 23], the Ki under setting [1] is less than 0.02 µM. In the case of `CS(=O)(=O)NC1CCc2cc(S(=O)(=O)c3cc4ccccc4n3S(=O)(=O)c3ccccn3)ccc21` (stereo not drawn) [Compound 10], the Ki under setting [1] is less than 0.02 µM. Turning to `O=S(=O)(c1ccc2c(c1)CCC2NS(=O)(=O)C(F)(F)F)c1ccc(C2CC2)cc1S(=O)(=O)c1ccccn1` (stereo not drawn) [Compound 12], the Ki under setting [1] was less than 0.02 µM. On to `O=S(=O)(c1ccc2c(c1)CCC2NS(=O)(=O)C(F)(F)F)c1ccc(Cl)cc1S(=O)(=O)c1ccccc1F` (stereo not drawn) [Compound 6], for which the Ki under setting [1] was less than 0.02 µM. Consider `COc1ccc(S(=O)(=O)c2ccc3c(c2)CCC3NS(=O)(=O)C(F)(F)F)c(S(=O)(=O)c2ccccc2F)c1` (stereo not drawn) [Compound 5], for which the Ki under setting [1] is less than 0.02 µM. For `CS(=O)(=O)NC1CCc2cc(C(=O)c3ccc(OC(F)(F)F)cc3S(=O)(=O)c3ccccc3F)ccc21` (stereo not drawn) [Compound 2], the Ki was less than 0.02 µM. `CS(=O)(=O)NC1CCc2cc(S(=O)(=O)c3ccc(Cl)cc3S(=O)(=O)c3ccccn3)ccc21` (stereo not drawn) [Compound 8]: under setting [1], the Ki was less than 0.02 µM.

The values are drawn from patent publication US7253189B2, “Cannabinoid receptor ligands” (Schering Corporation, priority 2002, dated 2007).
